Assay: pH of 1% aqueous solution
Type: physicochemical
Settings: polyoxyethylene alkyl ether carboxylate

Substance: NaOH
- pH of 1% aqueous solution, 60% neutralization (60% neutralization): about 5.7
- pH of 1% aqueous solution, 90% neutralization (90% neutralization): about 6.5
- pH of 1% aqueous solution, 100% neutralization (100% neutralization): about 7.8

Reference: patent US12138329B2, “Gel cleansing agent” (SHISEIDO HONEYCAKE INDUSTRIES CO., LTD., priority 2019, dated 2024)
